*1 amine or outer side, *2 acyl side, *3 side chain or, on linkers, in order; H or OH if unused. Where a SMILES comes first, the peptide text is derived from it. [ ]: non-standard residue; d: D form. NMeTrp(1-OMe) = CN[C@@H](Cc1cn(OC)c2ccccc12)C(=O)O; Butanoyl(2R-oxy,4-CN) = N#CCC[C@@H](O)C(=O)O; X1 = CCCC[C@@H](C)C[C@H](N[*:1])C(=O)[*:2]; NMeL = CN[C@@H](CC(C)C)C(=O)O; NMeA = CN[C@@H](C)C(=O)O
Columns and labels:
Assay type in all cases: functional, cell-based
HMEC [1] = test: The compound (derived from natural HUN-7293) was tested for the ability to inhibit inducible cell adhesion molecule expression (VCAM-1) in primary human micro vascular cell line (HMEC-1)
HUVEC [2] = test: The compound (derived from natural HUN-7293) was tested for the ability to inhibit inducible cell adhesion molecule expression (ICAM-1) in primary human endothelial cell line (HUVEC)
HUVEC [3] = test: The compound (synthetic) was tested for the ability to inhibit inducible cell adhesion molecule expression (ICAM-1) in primary human endothelial cell line (HUVEC)
HMEC [4] = test: The compound (derived from natural HUN-7293) was tested for the ability to inhibit inducible cell adhesion molecule expression (ICAM-1) in primary human micro vascular cell line (HMEC-1)
HUVEC [5] = test: The compound (derived from natural HUN-7293) was tested for the ability to inhibit inducible cell adhesion molecule expression (E-selectin) in primary human endothelial cell line (HUVEC)
HUVEC [6] = test: The compound (synthetic) was tested for the ability to inhibit inducible cell adhesion molecule expression (VCAM-1) in primary human endothelial cell line (HUVEC)
HUVEC [7] = test: The compound (synthetic) was tested for the ability to inhibit inducible cell adhesion molecule expression (E-selectin) in primary human endothelial cell line (HUVEC)
HUVEC [8] = test: The compound (derived from natural HUN-7293) was tested for the ability to inhibit inducible cell adhesion molecule expression (VCAM-1) in primary human endothelial cell line (HUVEC)
HMEC [9] = test: The compound (synthetic) was tested for the ability to inhibit inducible cell adhesion molecule expression (VCAM-1) in primary human micro vascular cell line (HMEC-1)
HUVEC [10] = test: The compound was tested for the ability to inhibit inducible cell adhesion molecule expression (E-selectin) in primary human endothelial cell line (HUVEC)
HUVEC [11] = test: The compound was tested for the ability to inhibit inducible cell adhesion molecule expression (VCAM-1) in primary human endothelial cell line (HUVEC)
HMEC [12] = test: The compound was tested for the ability to inhibit inducible cell adhesion molecule expression (ICAM-1) in primary human micro vascular cell line (HMEC-1)
HMEC [13] = test: The compound was tested for the ability to inhibit inducible cell adhesion molecule expression (VCAM-1) in primary human micro vascular cell line (HMEC-1)
HUVEC [14] = test: The compound was tested for the ability to inhibit inducible cell adhesion molecule expression (ICAM-1) in primary human endothelial cell line (HUVEC)

Compound	IC50 (HMEC [1]) [nM]	IC50 (HUVEC [2]) [nM]	IC50 (HUVEC [3]) [nM]	IC50 (HMEC [4]) [nM]	IC50 (HUVEC [5]) [nM]	IC50 (HUVEC [6]) [nM]	IC50 (HUVEC [7]) [nM]	IC50 (HUVEC [8]) [nM]	IC50 (HMEC [9]) [nM]	IC50 (HUVEC [10]) [nM]	IC50 (HUVEC [11]) [nM]	IC50 (HMEC [12]) [nM]	IC50 (HMEC [13]) [nM]	IC50 (HUVEC [14]) [nM]
CCCC[C@@H](C)C[C@@H]1NC(=O)[C@H](Cc2cn(OC)c3ccccc23)N(C)C(=O)[C@H](CC(C)C)NC(=O)[C@H](CC(C)C)N(C)C(=O)[C@H](C[C@H](C)CCCC)NC(=O)[C@@H](CCC#N)NC(=O)[C@H](C)N(C)C1=O	22	540	950	540	540	64	1000	33	58	–	–	–	–	–
CCCC[C@@H](C)C[C@@H]1NC(=O)[C@H](Cc2cn(OC)c3ccccc23)N(C)C(=O)[C@H](CC(C)C)NC(=O)[C@H](CC(C)C)N(C)C(=O)[C@H](C[C@H](C)CCCC)NC(=O)[C@@H](CCC#N)OC(=O)[C@H](C)N(C)C1=O (cyclo(L[NMeTrp(1-OMe)][X1][NMeA][Butanoyl(2R-oxy,4-CN)][X1][NMeL]))	–	–	–	–	–	–	–	–	–	44	3	24	1	26
CCCC[C@@H](C)C[C@@H]1NC(=O)[C@@H](CCC#N)NC(=O)[C@H](C)N(C)C(=O)[C@H](C[C@H](C)CCCC)NC(=O)[C@H](Cc2cn(OC)c3ccccc23)N(C)C(=O)[C@H](CC(C)C)NC(=O)[C@@H](CC(C)C)N(C)C1=O	–	–	–	–	–	–	–	–	–	> 10000	560	> 3000	550	> 3000

Reference: ChEMBL document CHEMBL1133260, “Synthesis and evaluation of aza HUN-7293” (Bioorg Med Chem Lett, 2000)
